target: T1, BRD9 (Homo sapiens, UniProt Q9H8M2); experiment: HiBiT BRD9 degradation assay in 293T.166 (BRD9-HiBiT) cells; format: cell-based; set-up: endogenously expressing BRD9 with HiBiT fusion tag via CRISPR; host or cells: 293T.166 (BRD9-HiBiT), also expressing LgBiT ectopically; settings: Table 1; 293T.166 cells, 2.0 hours; class symbols; read-out: HiBiT-Degradation 293T.166 BRD9 2.0 hours (DC50)
T1 sequence (Q9H8M2 1-597): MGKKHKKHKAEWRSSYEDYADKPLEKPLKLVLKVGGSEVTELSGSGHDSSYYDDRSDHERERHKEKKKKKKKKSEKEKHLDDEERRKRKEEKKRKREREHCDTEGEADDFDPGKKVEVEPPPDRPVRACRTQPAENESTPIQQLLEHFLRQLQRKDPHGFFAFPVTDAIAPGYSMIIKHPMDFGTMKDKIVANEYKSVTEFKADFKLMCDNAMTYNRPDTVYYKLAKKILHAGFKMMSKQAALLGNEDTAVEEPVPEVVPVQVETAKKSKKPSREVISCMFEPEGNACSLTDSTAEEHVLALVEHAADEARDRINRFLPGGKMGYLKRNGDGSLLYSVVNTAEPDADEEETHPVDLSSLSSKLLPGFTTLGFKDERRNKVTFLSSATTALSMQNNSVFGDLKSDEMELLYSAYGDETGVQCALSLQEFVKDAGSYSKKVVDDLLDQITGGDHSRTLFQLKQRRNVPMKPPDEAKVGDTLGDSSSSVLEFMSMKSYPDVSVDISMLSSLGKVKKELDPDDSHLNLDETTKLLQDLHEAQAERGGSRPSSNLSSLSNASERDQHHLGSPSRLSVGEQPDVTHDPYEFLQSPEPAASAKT
Description: Selected compounds were tested in a BRD9 degradation assay using the HiBit Method.
Dulbecco's modified Eagle medium (DMEM) without phenol red and fetal bovine serum (FBS) were purchased from Gibco (Grand Island, N.Y., USA). Nano-Glo® HiBiT Lytic Assay System was purchased from Promega (Madison, Wis., USA). 293T.166 (BRD9-HiBiT) cell line, endogenously expressing BRD9 with HiBiT fusion tag via CRISPR and ectopically expressing LgBiT tag, was purchased from Promega (Madison, Wis., USA). 293T.167 (BRD7-HiBiT) cell line, endogenously expressing BRD7 with HiBiT fusion tag via CRISPR and ectopically expressing LgBiT tag, was purchased from Promega (Madison, Wis., USA). 293T.92 (BRD4-HiBiT) cell line, endogenously expressing BRD4 with HiBiT fusion tag via CRISPR and ectopically expressing LgBiT tag, was generated in-house. Cell culture flasks and 384-well microplates were acquired from VWR (Radnor, Pa., USA).
BRD9 degradation was determined based on quantification of luminescent signal using Nano-Glo® HiBiT Lytic Assay kit. Test compounds were added to the 384-well plate from a top concentration of 10 μM with 11 points, half log titration in duplicates. 293T.166 cells were added into 384-well plates at a cell density of 10,000 cells per well. The plates were kept at 37° C. with 5% CO2 for 2 hours. BRD7 and BRD4 degradation was similarly determined with 293T.167 cells and 293T.92 cells, respectively. The cells treated in the absence of the test compound were the negative control and the cells without Nano-Glo® HiBiT Lytic reagent were the positive control. After 2-hour incubation, Nano-Glo® HiBiT Lytic Assay reagents were added to the cells. Luminescence was acquired on EnVision™ Multilabel Reader (PerkinElmer, Santa Clara, Calif., USA).

DC50 [nM]	SMILES
< 100	COc1cc(-c2cn(C)c(=O)c3[nH]ncc23)cc(OC)c1CN1CCN(C(=O)CN2CCC(c3ccc(NC4CCC(=O)NC4=O)cc3)CC2)CC1 (single isomer, unassigned) [Compound 2]
< 100	COc1cc(-c2cn(C)c(=O)c3cnccc23)cc(OC)c1CN1CCN(C(=O)CC2CCN(c3ccc(NC4CCC(=O)NC4=O)cc3C(F)(F)F)CC2)CC1 (single isomer, unassigned) [Compound 55]
< 100	COc1cc(-c2cn(C)c(=O)c3cnccc23)cc(OC)c1CN1CCN(C(=O)CC2CCN(c3ccc(NC4CCC(=O)NC4=O)cc3C(F)(F)F)CC2)CC1 (single isomer, unassigned) [Compound 56]
< 100	COc1cc(-c2cn(C)c(=O)c3cnccc23)cc(Cl)c1CN1CCC(N2CCN(c3ccc(NC4CCC(=O)NC4=O)cc3F)CC2)C(F)(F)C1 (single isomer, unassigned) [Compound 178, 3-[4-[4-[1-[[2-chloro-6-methoxy-4-(2-methyl-1-oxo-2,7-naphthyridin-4-yl)phenyl]methyl]-3,3-difluoro-4-piperidyl]piperazin-1-yl]-3-fluoro-anilino]piperidine-2,6-dione]
< 100	COc1cc(-c2cn(C)c(=O)c3cnccc23)cc(Cl)c1CN1CCC(N2CCN(c3ccc(NC4CCC(=O)NC4=O)cc3F)CC2)C(F)(F)C1 (single isomer, unassigned) [Compound 180, 3-[4-[4-[1-[[2-chloro-6-methoxy-4-(2-methyl-1-oxo-2,7-naphthyridin-4-yl)phenyl]methyl]-3,3-difluoro-4-piperidyl]piperazin-1-yl]-3-fluoro-anilino]piperidine-2,6-dione]
< 100	COc1cc(-c2cn(C)c(=O)c3cnccc23)cc(Cl)c1CN1CCC(N2CCN(c3ccc(NC4CCC(=O)NC4=O)cc3F)CC2)C(F)(F)C1 (single isomer, unassigned) [Compound 181, 3-[4-[4-[1-[[2-chloro-6-methoxy-4-(2-methyl-1-oxo-2,7-naphthyridin-4-yl)phenyl]methyl]-3,3-difluoro-4-piperidyl]piperazin-1-yl]-3-fluoro-anilino]piperidine-2,6-dione]
< 100	Cc1c(-c2ccc(C(=O)N3CCC(C4CCN(c5ccc(NC6CCC(=O)NC6=O)cc5F)CC4)CC3)c(OC(F)(F)F)c2)cn(C)c(=O)c1C (single isomer, unassigned) [Compound 214, 3-[3-fluoro-4-[4-[1-[2-(trifluoromethoxy)-4-(1,4,5-trimethyl-6-oxo-3-pyridyl)benzoyl]-4-piperidyl]-1-piperidyl]anilino]piperidine-2,6-dione]

The next lines start with the compound.

SMILES	DC50 [nM]
COc1cc(-c2cn(C)c(=O)c3[nH]ncc23)cc(OC)c1CN1CCN(C(=O)CN2CCC(c3ccc(NC4CCC(=O)NC4=O)cc3)CC2)CC1 (single isomer, unassigned) [Compound 3]	< 100
COc1cc(-c2cn(C)c(=O)c(C)c2C)cc(OC)c1CN1CCC(N2CCN(c3ccc(NC4CCC(=O)NC4=O)cc3F)CC2)C(F)(F)C1 (single isomer, unassigned) [Compound 173, 3-[4-[4-[1-[[2,6-dimethoxy-4-(1,4,5-trimethyl-6-oxo-3-pyridyl)phenyl]methyl]-3,3-difluoro-4-piperidyl]piperazin-1-yl]-3-fluoro-anilino]piperidine-2,6-dione]	< 100
COc1cc(-c2cn(C)c(=O)c(C)c2C)cc(OC)c1CN1CCC(N2CCN(c3ccc(NC4CCC(=O)NC4=O)cc3F)CC2)C(F)(F)C1 (single isomer, unassigned) [Compound 174, 3-[4-[4-[1-[[2,6-dimethoxy-4-(1,4,5-trimethyl-6-oxo-3-pyridyl)phenyl]methyl]-3,3-difluoro-4-piperidyl]piperazin-1-yl]-3-fluoro-anilino]piperidine-2,6-dione]	< 100
COc1cc(-c2cn(C)c(=O)c(C)c2C)cc(OC)c1CN1CCC(N2CCN(c3ccc(NC4CCC(=O)NC4=O)cc3F)CC2)C(F)(F)C1 (single isomer, unassigned) [Compound 175, 3-[4-[4-[1-[[2,6-dimethoxy-4-(1,4,5-trimethyl-6-oxo-3-pyridyl)phenyl]methyl]-3,3-difluoro-4-piperidyl]piperazin-1-yl]-3-fluoro-anilino]piperidine-2,6-dione]	< 100
COc1cc(-c2cn(C)c(=O)c3cnccc23)cc(Cl)c1CN1CCC(N2CCN(c3ccc(NC4CCC(=O)NC4=O)cc3F)CC2)C(F)(F)C1 (single isomer, unassigned) [Compound 179, 3-[4-[4-[1-[[2-chloro-6-methoxy-4-(2-methyl-1-oxo-2,7-naphthyridin-4-yl)phenyl]methyl]-3,3-difluoro-4-piperidyl]piperazin-1-yl]-3-fluoro-anilino]piperidine-2,6-dione]	< 100
COc1cc(-c2cn(C)c(=O)c3[nH]ncc23)cc(Cl)c1CN1CCC(CC(=O)N2CCC(c3ccc(NC4CCC(=O)NC4=O)cc3)CC2)C(F)(F)C1 (single isomer, unassigned) [Compound 203, 3-[4-[1-[2-[1-[[2-chloro-6-methoxy-4-(6-methyl-7-oxo-1H-pyrazolo[3,4-c]pyridin-4-yl)phenyl]methyl]-3,3-difluoro-4-piperidyl]acetyl]-4-piperidyl]anilino]piperidine-2,6-dione]	< 100
COc1cc(-c2cn(C)c(=O)c3[nH]ncc23)cc(Cl)c1CN1CCC(CC(=O)N2CCC(c3ccc(NC4CCC(=O)NC4=O)cc3)CC2)C(F)(F)C1 (single isomer, unassigned) [Compound 204]	< 100

same assay, conditions: Table 1; 293T.166 cells, 2.0 hours; numeric bound; read-out: HiBiT-Degradation 293T.166 BRD9 2.0 hours (DC50)

DC50 [nM]	SMILES
> 800	Cc1c(-c2ccc(C(=O)N3CCC(C4CCN(c5ccc(NC6CCC(=O)NC6=O)cc5F)CC4)CC3)c(OC(F)(F)F)c2)cn(C)c(=O)c1C (single isomer, unassigned) [Compound 213, 3-[3-fluoro-4-[4-[1-[2-(trifluoromethoxy)-4-(1,4,5-trimethyl-6-oxo-3-pyridyl)benzoyl]-4-piperidyl]-1-piperidyl]anilino]piperidine-2,6-dione]

same assay, conditions: Table 2; 293T.166 cells, 2.0 hours; class symbols; read-out: HiBiT-Degradation 293T.166 BRD9 2.0 hours (DC50)

DC50 [nM]	SMILES
< 100	COc1cc(-c2cn(C)c(=O)c(C)c2C)cc(Cl)c1CN1CCc2c(CC3CCN(c4ccc(NC5CCC(=O)NC5=O)cc4F)CC3)cccc2C1 (single isomer, unassigned) [Compound 250]
< 100	COc1cc(-c2cn(C)c(=O)c(C)c2C)cc(Cl)c1CN1CCC(C2CCN(c3ccc(NC4CCC(=O)NC4=O)cc3F)CC2)C(F)(F)C1 (single isomer, unassigned) [Compound 256]
< 100	COc1cc(-c2cn(C)c(=O)c(C)c2C)cc(Cl)c1CN1CCC(C2CCN(c3ccc(NC4CCC(=O)NC4=O)cc3F)CC2)C(F)(F)C1 (single isomer, unassigned) [Compound 257]
100 to 500	COc1cc(-c2cn(C)c(=O)c(C)c2C)cc(Cl)c1CN1CCC(C2CCN(c3ccc(NC4CCC(=O)NC4=O)cc3F)CC2)C(F)(F)C1 (single isomer, unassigned) [Compound 258]
< 100	COc1cc(-c2cn(C)c(=O)c(C)c2C)cc(Cl)c1CN1CCC(C2CCN(c3ccc(NC4CCC(=O)NC4=O)cc3F)CC2)C(F)(F)C1 (single isomer, unassigned) [Compound 259]

same assay, conditions: Table 2; 293T.166 cells, 2.0 hours; numeric bound; read-out: HiBiT-Degradation 293T.166 BRD9 2.0 hours (DC50)

DC50 [nM]	SMILES
> 800	COc1cc(-c2cn(C)c(=O)c(C)c2C)cc(Cl)c1CN1CCc2c(CC3CCN(c4ccc(NC5CCC(=O)NC5=O)cc4F)CC3)cccc2C1 (single isomer, unassigned) [Compound 249]

— patent US11691972B2, “Compounds for targeted degradation of BRD9” (C4 Therapeutics, Inc., priority 2020, dated 2023)
